Columns and labels:
Assay type in all cases: cell-based
[1] = tested on: HBsAg; test: PHH HBV natural infection assay, HBsAg (alphalisa); details: Hepatitis B virus, Hepatocyte, read-out: HBsAg IC50
Outline: (§1)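 Primary human hepatocytes infected with HBV at 200 GE/cell plus 4% PEG8000 for 24 h, then sandwich-cultured 72 h in medium with 1% DMSO. Compound applied twice at 72-h intervals; supernatant HBsAg and HBeAg quantified by AlphaLISA.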

[2] = tested on: HBeAg; test: PHH HBV natural infection assay, HBeAg (alphalisa); details: Hepatitis B virus, Hepatocyte, read-out: HBeAg IC50
Outline: as §1

[3] = Cytotoxicity in PHH natural infection assay (Cell Counting Kit-8); details: HBV-infected primary human hepatocytes, CCK8
Outline: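 HBV-infected primary human hepatocytes (200 GE/cell, 4% PEG8000, 24 h), then sandwich-cultured 72 h. Cells dosed at varying concentrations for two 72-hour cycles, with medium refreshed. Cytotoxicity read by CCK-8 at end of treatment.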

Compound	IC50 [1] [µM]	IC50 [2] [µM]	CC50 at 144 h [3] [µM]
O=C(NC1CC2(CCN(c3nc4cc(Cl)ccc4o3)CC2)C1)C1CCS(=O)(=O)C1 (stereo not drawn) [Example 76, N-[7-(5-chloro-1,3-benzoxazol-2-yl)-7-azaspiro[3.5]nonan-2-yl]-1,1-dioxo-thiolane-3-carboxamide]	2.26	2.27	> 100
O=C(NC1CC2(CCN(c3nc4cc(Cl)ccc4o3)CC2)C1)c1ccc(C(F)(F)F)o1 [Example 77, N-[7-(5-chloro-1,3-benzoxazol-2-yl)-7-azaspiro[3.5]nonan-2-yl]-5-(trifluoromethyl)furan-2-carboxamide]	5.04	2.98	> 100
CC(C)(C)C(=O)NC1CCC2(CC1)CCN(c1nc3cc(Cl)ccc3o1)CC2 [Example 78, N-[3-(5-chloro-1,3-benzoxazol-2-yl)-3-azaspiro[5.5]undecan-9-yl]-2,2-dimethyl-propanamide]	1.47	1.2	57.9
CC(C)C(=O)NC1CCC2(CC1)CCN(c1nc3cc(Cl)ccc3o1)CC2 [Example 79, N-[3-(5-chloro-1,3-benzoxazol-2-yl)-3-azaspiro[5.5]undecan-9-yl]-2-methyl-propanamide]	8.84	11.6	> 100
CC(C)CC(=O)NC1CCC2(CC1)CCN(c1nc3cc(Cl)ccc3o1)CC2 [Example 80, N-[3-(5-chloro-1,3-benzoxazol-2-yl)-3-azaspiro[5.5]undecan-9-yl]-3-methyl-butanamide]	2.7	2.79	> 100
CS(=O)(=O)CC(=O)NC1CCC2(CC1)CCN(c1nc3cc(Cl)ccc3o1)CC2 [Example 81, N-[3-(5-chloro-1,3-benzoxazol-2-yl)-3-azaspiro[5.5]undecan-9-yl]-2-methylsulfonyl-acetamide]	3.49	2.28	67.3
NS(=O)(=O)CCC(=O)NC1CCC2(CC1)CCN(c1nc3cc(Cl)ccc3o1)CC2 [Example 82, N-[3-(5-chloro-1,3-benzoxazol-2-yl)-3-azaspiro[5.5]undecan-9-yl]-3-sulfamoyl-propanamide]	3.09	2.3	76.3
CS(=O)(=O)CCC(=O)NC1CCC2(CC1)CCN(c1nc3cc(Cl)ccc3o1)CC2 [Example 83, N-[3-(5-chloro-1,3-benzoxazol-2-yl)-3-azaspiro[5.5]undecan-9-yl]-3-methylsulfonyl-propanamide]	2.49	1.79	98.6
O=C(CC1CCOC1)NC1CCC2(CC1)CCN(c1nc3cc(Cl)ccc3o1)CC2 (stereo not drawn) [Example 84, N-[3-(5-chloro-1,3-benzoxazol-2-yl)-3-azaspiro[5.5]undecan-9-yl]-2-tetrahydrofuran-3-yl-acetamide]	2.02	1.37	58.6
O=C(NC1CCC2(CC1)CCN(c1nc3cc(Cl)ccc3o1)CC2)C1COC1 [Example 85, N-[3-(5-chloro-1,3-benzoxazol-2-yl)-3-azaspiro[5.5]undecan-9-yl]oxetane-3-carboxamide]	8.75	6.13	70.9
O=C(NC1CCC2(CC1)CCN(c1nc3cc(Cl)ccc3o1)CC2)C1CCOC1 (stereo not drawn) [Example 86, N-[3-(5-chloro-1,3-benzoxazol-2-yl)-3-azaspiro[5.5]undecan-9-yl]tetrahydrofuran-3-carboxamide]	2.89	2.8	82.7
CC1(C(=O)NC2CCC3(CC2)CCN(c2nc4cc(Cl)ccc4o2)CC3)CCSCC1 [Example 87, N-[3-(5-chloro-1,3-benzoxazol-2-yl)-3-azaspiro[5.5]undecan-9-yl]-4-methyl-tetrahydrothiopyran-4-carboxamide]	1.43	1.13	> 100
O=C(NC1CCC2(CC1)CCN(c1nc3cc(Cl)ccc3o1)CC2)C1CS(=O)(=O)C1 [Example 88, N-[3-(5-chloro-1,3-benzoxazol-2-yl)-3-azaspiro[5.5]undecan-9-yl]-1,1-dioxo-thietane-3-carboxamide]	1.52	1.25	28.9
O=C(NC1CCC2(CC1)CCN(c1nc3ccc(Cl)cc3o1)CC2)C1CS(=O)(=O)C1 [Example 89, N-[3-(6-chloro-1,3-benzoxazol-2-yl)-3-azaspiro[5.5]undecan-9-yl]-1,1-dioxo-thietane-3-carboxamide]	6.76	3.93	88.1
O=C(NC1CCC2(CC1)CCN(c1nc3cc(Cl)ccc3o1)CC2)C1CCS(=O)(=O)C1 (stereo not drawn) [Example 90, N-[3-(5-chloro-1,3-benzoxazol-2-yl)-3-azaspiro[5.5]undecan-9-yl]-1,1-dioxo-thiolane-3-carboxamide]	1.35	1.08	73.9
O=C(NC1CCC2(CC1)CCN(c1nc3cc(Cl)ccc3o1)CC2)[C@@H]1CCS(=O)(=O)C1 [Example 91, (3S)—N-[3-(5-chloro-1,3-benzoxazol-2-yl)-3-azaspiro[5.5]undecan-9-yl]-1,1-dioxo-thiolane-3-carboxamide]	1.12	0.676	89.2
O=C(NC1CCC2(CC1)CCN(c1nc3cc(Cl)ccc3o1)CC2)[C@H]1CCS(=O)(=O)C1 [Example 92, (3R)—N-[3-(5-chloro-1,3-benzoxazol-2-yl)-3-azaspiro[5.5]undecan-9-yl]-1,1-dioxo-thiolane-3-carboxamide]	0.857	0.75	83.9
CC1(C(=O)NC2CCC3(CC2)CCN(c2nc4cc(Cl)ccc4o2)CC3)CCS(=O)(=O)C1 (stereo not drawn) [Example 93, N-[3-(5-chloro-1,3-benzoxazol-2-yl)-3-azaspiro[5.5]undecan-9-yl]-3-methyl-1,1-dioxo-thiolane-3-carboxamide]	1.82	1.19	> 100
O=C(NC1CCC2(CC1)CCN(c1nc3ccc(Cl)cc3o1)CC2)C1CCS(=O)(=O)C1 (stereo not drawn) [Example 94, N-[3-(6-chloro-1,3-benzoxazol-2-yl)-3-azaspiro[5.5]undecan-9-yl]-1,1-dioxo-thiolane-3-carboxamide]	1.73	1.4	90.6
O=C(NC1CCC2(CC1)CCN(c1nc3cc(Cl)ccc3o1)CC2)C1CC2(C1)CS(=O)(=O)C2 [Example 95, N-[3-(5-chloro-1,3-benzoxazol-2-yl)-3-azaspiro[5.5]undecan-9-yl]-2,2-dioxo-2-λ^6-thiaspiro[3.3]heptane-6-carboxamide]	1.67	3.62	> 100
O=C(NC1CCC2(CC1)CCN(c1nc3cc(Cl)ccc3o1)CC2)C1CCS(=O)(=O)CC1 [Example 96, N-[3-(5-chloro-1,3-benzoxazol-2-yl)-3-azaspiro[5.5]undecan-9-yl]-1,1-dioxo-thiane-4-carboxamide]	0.957	0.727	93.6
O=C(NC1CCC2(CC1)CCN(c1nc3ccc(Cl)cc3o1)CC2)C1CCS(=O)(=O)CC1 [Example 97, N-[3-(6-chloro-1,3-benzoxazol-2-yl)-3-azaspiro[5.5]undecan-9-yl]-1,1-dioxo-thiane-4-carboxamide]	3.52	2.48	> 100
CC1(C(=O)NC2CCC3(CC2)CCN(c2nc4cc(Cl)ccc4o2)CC3)CC[S+]([O-])CC1 (stereo not drawn) [Example 98, N-[3-(5-chloro-1,3-benzoxazol-2-yl)-3-azaspiro[5.5]undecan-9-yl]-4-methyl-1-oxo-thiane-4-carboxamide]	4.23	2.23	> 100
CC1(C(=O)NC2CCC3(CC2)CCN(c2nc4cc(Cl)ccc4o2)CC3)CCS(=O)(=O)CC1 [Example 99, N-[3-(5-chloro-1,3-benzoxazol-2-yl)-3-azaspiro[5.5]undecan-9-yl]-4-methyl-1,1-dioxo-thiane-4-carboxamide]	2.63	2.02	94.1
O=C(NC1CCC2(CC1)CCN(c1nc3cc(Cl)ccc3o1)CC2)C1CCCS(=O)(=O)C1 (stereo not drawn) [Example 100, N-[3-(5-chloro-1,3-benzoxazol-2-yl)-3-azaspiro[5.5]undecan-9-yl]-1,1-dioxo-thiane-3-carboxamide]	2.44	1.72	> 100
O=C(NC1CCC2(CC1)CCN(c1nc3cc(Cl)ccc3o1)CC2)C1CCC(F)(F)C1 (stereo not drawn) [Example 101, N-[3-(5-chloro-1,3-benzoxazol-2-yl)-3-azaspiro[5.5]undecan-9-yl]-3,3-difluoro-cyclopentanecarboxamide]	4.16	4.29	> 100
O=C(NC1CCC2(CC1)CCN(c1nc3cc(Cl)ccc3o1)CC2)C1CCC(F)(F)CC1 [Example 102, N-[3-(5-chloro-1,3-benzoxazol-2-yl)-3-azaspiro[5.5]undecan-9-yl]-4,4-difluoro-cyclohexanecarboxamide]	3.6	3.77	> 100
CC[S+]([O-])c1ccc(C(=O)NC2CCC3(CC2)CCN(c2nc4cc(Cl)ccc4o2)CC3)o1 (stereo not drawn) [Example 103, N-[3-(5-chloro-1,3-benzoxazol-2-yl)-3-azaspiro[5.5]undecan-9-yl]-5-ethylsulfinyl-furan-2-carboxamide]	1.35	1.85	72.7
O=C(NC1CCC2(CC1)CCN(c1nc3cc(Cl)ccc3o1)CC2)c1ccc([S+]([O-])CC2CC2)o1 (stereo not drawn) [Example 104, N-[3-(5-chloro-1,3-benzoxazol-2-yl)-3-azaspiro[5.5]undecan-9-yl]-5-(cyclopropylmethylsulfinyl)furan-2-carboxamide]	1.16	0.996	94.8

Source: patent publication US20230416238A1, “N-[(1,3-BENZOXAZOL-2-YL)-HETEROCYCLE]AMIDE DERIVATIVES FOR THE TREATMENT AND PROPHYLAXIS OF HEPATITIS B VIRUS INFECTION” (Hoffmann-La Roche Inc., priority 2020, published 2023)
